From patent US9567339B2, “Primary carboxamides as BTK inhibitors” (AbbVie Inc., priority 2013, dated 2017)
Like-named read-outs stand apart in the source and are kept apart here.

Biological target: BTK, recombinant human catalytic domain (aa 393-659) (Homo sapiens (Human), UniProt Q06187)
Assay: In vitro BTK kinase activity measured by time-resolved fluorescence resonance energy transfer (trFRET)
Type: biochemical
Settings: read-out: Btk IC50
[1] = trFRET, 0.001 mM ATP, biotin-TYR1 peptide substrate

Sequence of BTK, recombinant human catalytic domain (aa 393-659) (Q06187 393-659): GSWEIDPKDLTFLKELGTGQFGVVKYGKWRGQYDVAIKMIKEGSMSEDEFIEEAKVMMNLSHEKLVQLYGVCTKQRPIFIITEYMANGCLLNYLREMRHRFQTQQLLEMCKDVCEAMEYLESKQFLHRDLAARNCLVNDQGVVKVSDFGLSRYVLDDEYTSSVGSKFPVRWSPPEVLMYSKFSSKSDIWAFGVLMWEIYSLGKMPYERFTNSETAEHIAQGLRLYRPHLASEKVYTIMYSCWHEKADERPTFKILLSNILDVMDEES

For `C=CC(=O)Nc1cc(-c2ccc(C(N)=O)c3[nH]ccc23)ccc1F` [E.1.23], the IC50 was < 0.1 µM.
Work on `Cn1cc(-c2cc3c(N4CCC[C@@H](NC(=O)c5ccc(C(C)(C)C(N)=O)cc5)C4)ccc(C(N)=O)c3[nH]2)cn1` [O.1.23*] yielded an IC50 of 0.1 to 1 µM.
In the case of `C=CC(=O)N1CC(N(C)c2ccc(C(N)=O)c3[nH]c(C4=CCC(F)(F)CC4)cc23)C1` [E.9.5], the IC50 is reported as < 0.1 µM.
Molecule `NC(=O)c1ccc(N2CCC[C@@H](n3cnc4ccccc4c3=O)C2)c2cc(-c3cccnc3)[nH]c12` [O.1.27*] has an IC50 of 0.1 to 1 µM.
For `Cc1c(-c2ccc(C(N)=O)c3[nH]c(-c4cnn(CC(C)(C)O)c4)cc23)cccc1-n1cnc2ccc(F)cc2c1=O` [A.14.1], the IC50 [1] was < 0.1 µM.
`C=CC(=O)Nc1cccc(-c2ccc(C(N)=O)c3[nH]c(-c4cccnc4)cc23)c1C` [A.1.36] was tested, and the IC50 [1] was < 0.1 µM.
Molecule `C=CC(=O)N1CC([C@H](C)c2ccc(C(N)=O)c3[nH]ccc23)C1` [28 (S), (S)-4-(1-(1-Acryloylazetidin-3-yl)ethyl)-1H-indole-7-carboxamide] has an IC50 [1] of 0.1 to 1 µM.
For `CN1CCC=C(C(=O)Nc2cccc(-c3ccc(C(N)=O)c4[nH]ccc34)c2)C1` [E.2.2], the IC50 [1] was 1 to 10 µM.
In the case of `Cc1c(-c2ccc(C(N)=O)c3[nH]c(C4=CCN(S(C)(=O)=O)CC4)cc23)cccc1-n1cnc2ccccc2c1=O` [A.4.18], the IC50 [1] is reported as < 0.1 µM.
For `CS(=O)(=O)N1CC=C(c2cc3c(-c4ccccc4)ccc(C(N)=O)c3[nH]2)CC1` [A.4.7], the IC50 [1] was < 0.1 µM.
Molecule `C=CC(=O)N1CCOC[C@@H](c2cnc(C(N)=O)c3[nH]ccc23)C1` [Example 3.1] has an IC50 of 0.1 to 1 µM.
In the case of `Cc1c(NC(=O)c2nccs2)cccc1-c1ccc(C(N)=O)c2[nH]cc(NC(=O)CC#N)c12` [D.3.1], the IC50 [1] is reported as 1 to 10 µM.
`COCCNC/C=C/C(=O)Nc1cccc(-c2ccc(C(N)=O)c3[nH]ccc23)c1C` [J.1.3] showed an IC50 of 1 to 10 µM.
With `Cc1c(NC(=O)c2ccc(C(C)(C)C)cc2)cccc1-c1ccc(C(N)=O)c2[nH]ccc12` [A.5.6] the IC50 [1] was 1 to 10 µM.
For `CCCC(=O)NCc1ccccc1-c1cc2c(-c3cccc(NC(=O)c4nccs4)c3C)ccc(C(N)=O)c2[nH]1` [D.1.8], the IC50 [1] was 1 to 10 µM.
Work on `C=CC(=O)N1CC(N(C)c2ccc(C(N)=O)c3[nH]c(C4(O)COC4)cc23)C1` [E.9.22] yielded an IC50 of 0.1 to 1 µM.
For `Cc1ccc(-c2cc3c(-c4nccs4)ccc(C(N)=O)c3[nH]2)cc1` [U.1.2], the IC50 was < 0.1 µM.
In the case of `C=C(CC)C(=O)Nc1cccc(-c2ccc(C(N)=O)c3[nH]ccc23)c1C` [D.8.11], the IC50 [1] is reported as 1 to 10 µM.
In the case of `C=CC(=O)Nc1cccc(-c2ccc(C(N)=O)c3[nH]c(-c4cccc(C#N)c4)cc23)c1C` [A.1.14], the IC50 [1] is reported as < 0.1 µM.
In the case of `Cc1c(-c2ccc(C(N)=O)c3[nH]c(-c4cnn(C)c4)nc23)cccc1-n1cnc2ccccc2c1=O` [Example 14, 2-(1-Methyl-1H-pyrazol-4-yl)-4-(2-methyl-3-(4-oxoquinazolin-3(4H)-yl)phenyl)-1H-benzo[d]imidazole-7-carboxamide], the IC50 [1] is reported as 0.1 to 1 µM.
For `C=CC(=O)N1CC(N(C)c2cnc(C(N)=O)c3[nH]ccc23)C1` [Example 29, 4-((1-Acryloylazetidin-3-yl)(methyl)amino)-1H-pyrrolo[2,3-c]pyridine-7-carboxamide], the IC50 [1] was < 0.1 µM.
`C=CC(=O)Nc1cccc(-c2ccc(C(N)=O)c3[nH]ncc23)c1` [Example 18, 4-(3-Acrylamidophenyl)-1H-indazole-7-carboxamide] was tested, and the IC50 [1] was < 0.1 µM.
In the case of `CC(=O)Nc1cccc(-c2ccc(C(N)=O)c3[nH]ccc23)c1C` [D.8.12], the IC50 [1] is reported as 1 to 10 µM.
In the case of `Cn1cc(-c2cc3c(-c4cccc(-n5ccc6cc(C7CC7)cc(F)c6c5=O)c4CO)ccc(C(N)=O)c3[nH]2)cn1` [A.15.1], the IC50 [1] is reported as < 0.1 µM.
Molecule `Cc1c(NC(=O)c2nccs2)cccc1-c1ccc(C(N)=O)c2[nH]c(-c3ccccc3CN)cc12` [Example 1, N-(3-(2-(2-(aminomethyl)phenyl)-7-carbamoyl-1H-indol-4-yl)-2-methylphenyl)thiazole-2-carboxamide] has an IC50 [1] of 0.1 to 1 µM.
`C=CC(=O)Nc1cccc(-c2ccc(C(N)=O)c3[nH]ccc23)c1OC` [E.1.30] gave an IC50 of 0.1 to 1 µM.
`Cc1ccc(-c2cc3c(-c4ccn[nH]4)ccc(C(N)=O)c3[nH]2)cc1` [A.8.8] showed an IC50 [1] of 0.1 to 1 µM.
With `Cc1ccc(-c2cc3c(-c4ccccn4)ccc(C(N)=O)c3[nH]2)cc1` [U.1.3] the IC50 was 0.1 to 1 µM.
`Cc1ccc(-c2cc3c(-c4cnn(C)c4)ccc(C(N)=O)c3[nH]2)cc1` [A.8.7] gave an IC50 [1] of 0.1 to 1 µM.
For `Cc1nc(C(=O)Nc2cccc(-c3ccc(C(N)=O)c4[nH]c(C5=CCN(S(C)(=O)=O)CC5)cc34)c2C)cs1` [D.7.30], the IC50 was < 0.1 µM.
With `Cn1cc(-c2cc3c(N4CCC[C@@H](NC(=O)c5ccc(C(C)(C)C)cc5)C4)ccc(C(N)=O)c3[nH]2)cn1` [O.1.19*] the IC50 was < 0.1 µM.
With `Cc1c(-c2ccc(C(N)=O)c3[nH]c(C4=CCOCC4)cc23)cccc1-n1cnc2ccccc2c1=O` [A.11.1] the IC50 [1] was < 0.1 µM.
With `C=CC(=O)Nc1cccc(-c2ccc(C(N)=O)c3[nH]c(C4=CCN(S(C)(=O)=O)CC4)cc23)c1C` [D.7.6] the IC50 was < 0.1 µM.
In the case of `Cn1cc(-c2cc3c(-c4cccc(-n5cnc6ccc(F)cc6c5=O)c4CO)ccc(C(N)=O)c3[nH]2)cn1` [M.1.1], the IC50 is reported as < 0.1 µM.
With `COc1ccc(C(=O)N[C@@H]2CCCN(c3ccc(C(N)=O)c4[nH]c(-c5cnn(C)c5)cc34)C2)cc1` [O.1.20*] the IC50 was 0.1 to 1 µM.
For `Cc1c(NC(=O)COc2ccc(C#N)cc2)cccc1-c1ccc(C(N)=O)c2[nH]c(C3=CCN(S(C)(=O)=O)CC3)cc12` [D.7.13], the IC50 was < 0.1 µM.
For `COC(=O)/C=C/C(=O)Nc1cccc(-c2ccc(C(N)=O)c3[nH]c(C4=CCN(S(C)(=O)=O)CC4)cc23)c1C` [D.7.18], the IC50 was < 0.1 µM.
For `C=CC(=O)Nc1cccc(-c2ccc(C(N)=O)c3[nH]c(-c4ccc(C(=O)N5CCCC5)cc4)cc23)c1C` [A.1.38], the IC50 [1] was < 0.1 µM.
`Cc1c(NC(=O)c2nccs2)cccc1-c1ccc(C(N)=O)c2[nH]c(-c3ccccc3CNC(=O)CC#N)cc12` [D.1.3] gave an IC50 [1] of 0.1 to 1 µM.
`NC(=O)c1ccc(N2CCCC(n3cnc4cc(C5CC5)cc(F)c4c3=O)C2)c2cc[nH]c12` (stereo not shown) [O.1.13] gave an IC50 of 1 to 10 µM.
`C=CC(=O)N1CC(N(C)c2ccc(C(N)=O)c3[nH]ccc23)C1` [Example 24, 4-((1-Acryloylazetidin-3-yl)(methyl)amino)-1H-indole-7-carboxamide] was tested, and the IC50 [1] was < 0.1 µM.
Work on `C=CC(=O)N1CC(N(C)c2ccc(C(N)=O)c3[nH]c(C4(O)COC4)cc23)C1` [E.9.1.1] yielded an IC50 of 0.1 to 1 µM.
`C/C=C/C(=O)Nc1cccc(-c2ccc(C(N)=O)c3[nH]c(C4=CCN(S(C)(=O)=O)CC4)cc23)c1C` [D.7.9] was tested, and the IC50 was < 0.1 µM.
Work on `Cc1c(NC(=O)c2nccs2)cccc1-c1ccc(C(N)=O)c2[nH]c(-c3ccccc3CNC(=O)CCN(C)C)cc12` [D.1.4] yielded an IC50 [1] of 0.1 to 1 µM.
With `C=CC(=O)N1CCOC[C@H](c2cnc(C(N)=O)c3[nH]ccc23)C1` [Example 3.2] the IC50 was 0.1 to 1 µM.
`Cc1c(NC(=O)/C=C/C(C)C)cccc1-c1ccc(C(N)=O)c2[nH]ccc12` [D.8.8] gave an IC50 [1] of 0.1 to 1 µM.
With `Cc1ccc(-c2cc3c(-c4cccnc4)ccc(C(N)=O)c3[nH]2)cc1` [A.8.3] the IC50 [1] was 0.1 to 1 µM.
With `C#CC(=O)N1CC(N(C)c2ccc(C(N)=O)c3[nH]c(C)cc23)C1` [D.10.1] the IC50 [1] was < 0.1 µM.
In the case of `C=CC(=O)N1CCOC[C@@H](c2ccc(C(N)=O)c3[nH]ccc23)C1` [E.9.38], the IC50 is reported as < 0.1 µM.
`C=CC(=O)Nc1cc(OCc2nccs2)ccc1-c1ccc(C(N)=O)c2[nH]ccc12` [E.1.16] gave an IC50 of 1 to 10 µM.
For `C=CC(=O)Nc1cccc(-c2ccc(C(N)=O)c3[nH]c(-c4cccnc4F)cc23)c1C` [A.1.17], the IC50 [1] was < 0.1 µM.
`Cc1c(NC(=O)/C=C/c2nccs2)cccc1-c1ccc(C(N)=O)c2[nH]ccc12` [D.8.5] was tested, and the IC50 [1] was 0.1 to 1 µM.
